Structures can show the parent of a compound that is named as a salt.
Legend:
Type in all cases: cell-based, Staphylococcus aureus
vraR transcription = test: Tertiary screen: qRT-PCR of vraR in strain 923; settings: for Effect on vraSR Transcription: With oxacillin: compound 10 μM + oxacillin 2 μg/mL; for Effect on vraSR Transcription: Compound alone: compound 10 μM, no oxacillin; for classification of lux screen result against qRT-PCR (true/false repressor or stimulator): in the presence of oxacillin
[1] = tested on: vraSR transcription (Pvra::lux); settings: compound 10 μM + oxacillin 2 μg/mL; for RL avg (relative luminescence): ratio of LU to oxacillin alone, four runs
Procedure: (§1) In the secondary screen each microtiter plate contained either cells in TSB alone (16 replicates), cells with oxacillin (2 μg/mL, 31 replicates), or cells with test compound and oxacillin (2 μg/mL, 49 wells). Each compound was assayed in four separate biological replicates.
(§2) All compounds classified in the primary screen as synergists that were vraSR-stimulating or -repressing (as shown in Table 8) were screened in a secondary assay for their effects on both growth and Pvra::lux induction by oxacillin. […] Each compound was tested four separate times at 10 μM in the presence of oxacillin (2 μg/mL) and luminescence was measured every 15 minutes. Relative growth (RG) and relative luminescence (RL) was calculated as the ratio between the OD600 or max LU value in the presence of compound and oxacillin over the average from pooled control values obtained from the same plate. […] Compounds that produced an average RG (ratio of the OD600 of the culture grown with test compound combined with oxacillin to that of oxacillin alone) of <0.8 were classified as oxacillin synergists or potentiators. The relative luminescence (RL) was the ratio of the LU produced in the presence of the test compound combined with oxacillin to that produced by oxacillin alone. Compounds were classified as “vraSR repressors” (mean RL of <0.8), “vraSR stimulators”, (mean RL>1.2), and “vraSR neutral” (mean RL between 0.80-1.2). […] In contrast, 34 compounds had no effect on growth in the presence of oxacillin (“un” in the OD600 category). Among the oxacillin potentiators, there were 2 vraSR stimulators, 3 vraSR neutral compounds and 10 vraSR repressors.

[2] = tested on: MRSA strain USA300 Pvra-lux; settings: compound 10 μM + oxacillin 2 μg/mL; for RG avg (relative growth): ratio of OD600 to oxacillin alone, four runs
Procedure: as §1, §2

For CN(C)CCn1nnnc1SCC1=C(C(=O)O)N2C(=O)[C@@H](NC(=O)Cc3csc(N)n3)[C@H]2SC1 [Cefotiam hydrochloride], the “Effect on vraSR Transcription: With oxacillin” value (from here on “Effect … With oxacillin”) (vraR transcription; qRT-PCR of vraR, hydrochloride) was “vraR activator”, the “Effect on vraSR Transcription: Compound alone” value (“Effect … Compound alone” below) (vraR transcription; qRT-PCR of vraR) was “stimulate” and the “Effect on vraSR transcription” value [1] was “neutral (“vraSR neutral” (mean RL between 0.80-1.2))”. The “RL avg (relative luminescence)” value [1] was 0.64, the OD600 category [2] was “inhibited (of <0.8 were classified as oxacillin synergists or potentiators)” and the “RG avg (relative growth)” value [2] was 0.64.
In the case of CC/C(=C(/CC)c1ccc(O)cc1)c1ccc(O)cc1 [Diethylstilbestrol], the “Effect … With oxacillin” value (vraR transcription; qRT-PCR of vraR) is reported as “super-stimulate”, the “Effect … With oxacillin” value (vraR transcription; qRT-PCR of vraR, listed as diethylstilbesterol) is reported as “enhanced oxacillin's effect on vraR transcription” and the “Effect … Compound alone” value (vraR transcription; qRT-PCR of vraR) is reported as “None”. For the same molecule, the “Effect on vraSR transcription” value [1] was “repress (“vraSR repressors” (mean RL of <0.8))”, the “RL avg (relative luminescence)” value [1] was 0.26 and the OD600 category [2] was “inhibited (of <0.8 were classified as oxacillin synergists or potentiators)”. For the same molecule, the “RG avg (relative growth)” value [2] was 0.41.
In the case of O=C1NCN(c2ccccc2)C12CCN(CCCC(c1ccc(F)cc1)c1ccc(F)cc1)CC2 [Fluspirilen], the “Effect on vraSR transcription (summary)” value (vraR transcription; qRT-PCR of vraR, alone and with oxacillin) is reported as “No effect”, the “Effect … With oxacillin” value (vraR transcription; qRT-PCR of vraR) is reported as “vraR neutral” and the “Effect … With oxacillin” value (vraR transcription; qRT-PCR of vraR, listed as fluspirilene) is reported as “none”. For the same molecule, the “Effect … Compound alone” value (vraR transcription; qRT-PCR of vraR) was “none”, the “Effect on vraSR transcription” value [1] was “stimulate (“vraSR stimulators”, (mean RL>1.2))” and the “RL avg (relative luminescence)” value [1] was 0.28. For the same molecule, the OD600 category [2] was “inhibited (of <0.8 were classified as oxacillin synergists or potentiators)” and the “RG avg (relative growth)” value [2] was 0.47.
C#C[C@]1(O)CC[C@H]2[C@@H]3CCC4=CCCC[C@@H]4[C@H]3CC[C@@]21C [Lynestrenol] was tested, and the “Effect … Compound alone” value (vraR transcription; qRT-PCR of vraR) was “stimulate”, the “Effect on vraSR transcription” value [1] was “repress (“vraSR repressors” (mean RL of <0.8))” and the “RL avg (relative luminescence)” value [1] was 0.26. For the same molecule, the OD600 category [2] was “inhibited (of <0.8 were classified as oxacillin synergists or potentiators)” and the “RG avg (relative growth)” value [2] was 0.47.
With OC(Cn1cncn1)(Cn1cncn1)c1ccc(F)cc1F [fluconazole] the “classification of lux screen result against qRT-PCR (true/false repressor or stimulator)” value (vraR transcription) was “false stimulator”.
For CO[C@H]1C[C@H](O[C@H]2[C@H](C)[C@@H](O[C@@H]3O[C@H](C)C[C@H](N(C)C)[C@H]3O)[C@@H](C)C[C@@]3(CO3)C(=O)[C@H](C)[C@@H](O)[C@@H](C)[C@@H](C)OC(=O)[C@@H]2C)O[C@@H](C)[C@@H]1O [Oleandomycin phosphate, (3R,5R,6S,7R,8R,11R,12S,13R,14S,15S)-14-((2S,3R,4S,6R)-4-(dimethylamino)-3-hydroxy-6-methyltetrahydro-2H-pyran-2-yloxy)-6-hydroxy-12-((2R,4S,5S,6S)-5-hydroxy-4-methoxy-6-methyltetrahydro-2H-pyran-2-yloxy)-5,7,8,11,13,15-hexamethyl-1,9-dioxaspiro[2.13]hexadecane-4,10-dione], the “classification of lux screen result against qRT-PCR (true/false repressor or stimulator)” value (vraR transcription) was “true vraSR expression repressors”, the “Effect … With oxacillin” value (vraR transcription; qRT-PCR of vraR) was “repress” and the “Effect on vraSR transcription” value [1] was “repress (“vraSR repressors” (mean RL of <0.8))”. The “RL avg (relative luminescence)” value [1] was 0.20, the OD600 category [2] was “inhibited (of <0.8 were classified as oxacillin synergists or potentiators)” and the “RG avg (relative growth)” value [2] was 0.19.
With CC(=O)OCC1=C(C(=O)O)N2C(=O)[C@@H](NC(=O)Cc3cccs3)[C@H]2SC1 [Cephalothin sodium salt] the “Effect … Compound alone” value (vraR transcription; qRT-PCR of vraR) was “stimulate”, the “Effect on vraSR transcription” value [1] was “neutral (“vraSR neutral” (mean RL between 0.80-1.2))” and the “RL avg (relative luminescence)” value [1] was 0.36. For the same molecule, the OD600 category [2] was “inhibited (of <0.8 were classified as oxacillin synergists or potentiators)” and the “RG avg (relative growth)” value [2] was 0.45.
With Spiramycin the “Effect … With oxacillin” value (vraR transcription; qRT-PCR of vraR) was “super-stimulate”, the “Effect … Compound alone” value (vraR transcription; qRT-PCR of vraR) was “None” and the “Effect on vraSR transcription” value [1] was “repress (“vraSR repressors” (mean RL of <0.8))”. The “RL avg (relative luminescence)” value [1] was 0.31, the OD600 category [2] was “inhibited (of <0.8 were classified as oxacillin synergists or potentiators)” and the “RG avg (relative growth)” value [2] was 0.43.
In the case of COc1ccc(-c2cc(=O)c3c(O)cc(O)cc3o2)cc1 [Acacetin], the “Effect on vraSR transcription” value [1] is reported as “neutral (“vraSR neutral” (mean RL between 0.80-1.2))”, the “RL avg (relative luminescence)” value [1] is reported as 0.88 and the OD600 category [2] is reported as “un (no effect on growth in the presence of oxacillin (“un” in the OD600 category))”. For the same molecule, the “RG avg (relative growth)” value [2] was 0.91.
For CC(C(=O)O)c1ccc(N2Cc3ccccc3C2=O)cc1 (stereo not drawn) [Indoprofen], the “Effect on vraSR transcription” value [1] was “neutral (“vraSR neutral” (mean RL between 0.80-1.2))”, the “RL avg (relative luminescence)” value [1] was 0.87 and the OD600 category [2] was “un (no effect on growth in the presence of oxacillin (“un” in the OD600 category))”. For the same molecule, the “RG avg (relative growth)” value [2] was 0.98.
CC1CS(=O)(=O)CCN1/N=C/c1ccc([N+](=O)[O-])o1 (stereo not drawn) [Nifurtimox] was tested, and the “Effect on vraSR transcription” value [1] was “repress (“vraSR repressors” (mean RL of <0.8))”, the “RL avg (relative luminescence)” value [1] was 0.95 and the OD600 category [2] was “un (no effect on growth in the presence of oxacillin (“un” in the OD600 category))”. The “RG avg (relative growth)” value [2] was 0.97.
NS(=O)(=O)c1cc2c(cc1Cl)N=C(CSCc1ccccc1)NS2(=O)=O [Benzthiazide] was tested, and the “Effect on vraSR transcription” value [1] was “neutral (“vraSR neutral” (mean RL between 0.80-1.2))”, the “RL avg (relative luminescence)” value [1] was 0.95 and the OD600 category [2] was “un (no effect on growth in the presence of oxacillin (“un” in the OD600 category))”. The “RG avg (relative growth)” value [2] was 1.01.
C(=C\c1ccccc1)/CN1CCN(C(c2ccccc2)c2ccccc2)CC1 [Cinnarizine] was tested, and the “Effect on vraSR transcription” value [1] was “neutral (“vraSR neutral” (mean RL between 0.80-1.2))”, the “RL avg (relative luminescence)” value [1] was 0.94 and the OD600 category [2] was “un (no effect on growth in the presence of oxacillin (“un” in the OD600 category))”. For the same molecule, the “RG avg (relative growth)” value [2] was 0.97.
O=C(CCCN1CC=C(n2c(=O)[nH]c3ccccc32)CC1)c1ccc(F)cc1 [Droperidol] was tested, and the “Effect on vraSR transcription” value [1] was “neutral (“vraSR neutral” (mean RL between 0.80-1.2))”, the “RL avg (relative luminescence)” value [1] was 0.91 and the OD600 category [2] was “un (no effect on growth in the presence of oxacillin (“un” in the OD600 category))”. The “RG avg (relative growth)” value [2] was 1.02.
CCn1nc(C(=O)O)c(=O)c2cc3c(cc21)OCO3 [Cinoxacin] was tested, and the “Effect on vraSR transcription” value [1] was “neutral (“vraSR neutral” (mean RL between 0.80-1.2))”, the “RL avg (relative luminescence)” value [1] was 1.03 and the OD600 category [2] was “un (no effect on growth in the presence of oxacillin (“un” in the OD600 category))”. The “RG avg (relative growth)” value [2] was 1.05.
CCN1CCN(C(=O)N[C@@H](C(=O)N[C@@H]2C(=O)N3C(C(=O)O)=C(CSc4nnnn4C)CS[C@H]23)c2ccc(O)cc2)C(=O)C1=O [Cefoperazone dihydrate] was tested, and the “Effect … Compound alone” value (vraR transcription; qRT-PCR of vraR) was “stimulate”, the “Effect on vraSR transcription” value [1] was “neutral (“vraSR neutral” (mean RL between 0.80-1.2))” and the “RL avg (relative luminescence)” value [1] was 0.77. The OD600 category [2] was “inhibited (of <0.8 were classified as oxacillin synergists or potentiators)” and the “RG avg (relative growth)” value [2] was 0.79.
C=C1CC[C@H](O)C/C1=C/C=C1\CCC[C@]2(C)[C@@H]([C@H](C)/C=C/[C@H](C)C(C)C)CC[C@@H]12 [Calciferol] was tested, and the “Effect on vraSR transcription” value [1] was “neutral (“vraSR neutral” (mean RL between 0.80-1.2))”, the “RL avg (relative luminescence)” value [1] was 0.88 and the OD600 category [2] was “un (no effect on growth in the presence of oxacillin (“un” in the OD600 category))”. The “RG avg (relative growth)” value [2] was 0.96.
For Trimeprazine tartrate, the “Effect on vraSR transcription” value [1] was “neutral (“vraSR neutral” (mean RL between 0.80-1.2))”, the “RL avg (relative luminescence)” value [1] was 0.96 and the OD600 category [2] was “un (no effect on growth in the presence of oxacillin (“un” in the OD600 category))”. For the same molecule, the “RG avg (relative growth)” value [2] was 1.04.
With CCC(=O)OCC(=O)[C@@]1(OC(=O)CC)[C@@H](C)C[C@H]2[C@@H]3CCC4=CC(=O)C=C[C@]4(C)[C@@]3(Cl)[C@@H](O)C[C@@]21C [Beclomethasone dipropionate] the “Effect on vraSR transcription” value [1] was “neutral (“vraSR neutral” (mean RL between 0.80-1.2))”, the “RL avg (relative luminescence)” value [1] was 0.96 and the OD600 category [2] was “un (no effect on growth in the presence of oxacillin (“un” in the OD600 category))”. For the same molecule, the “RG avg (relative growth)” value [2] was 0.96.
In the case of CCN(CC)CCOc1ccc(C(=C(Cl)c2ccccc2)c2ccccc2)cc1 (racemic) [Clomiphene citrate (Z,E), 2-(4-(2-chloro-1,2-diphenylethenyl)phenoxy)-N,N-diethyl-ethanamine], the “Effect on vraSR transcription” value [1] is reported as “repress (“vraSR repressors” (mean RL of <0.8))”, the “RL avg (relative luminescence)” value [1] is reported as 0.39 and the OD600 category [2] is reported as “inhibited (of <0.8 were classified as oxacillin synergists or potentiators)”. For the same molecule, the “RG avg (relative growth)” value [2] was 0.68.

Reference: patent US20150283120A1, “ANTIBIOTIC METHODS AND COMPOSITIONS FOR BACTERIA INFECTIONS” (THE UNIVERSITY OF CHICAGO, priority 2012, published 2015)
